From patent US20060069132A1, “Azolecarboxamide herbicides” (priority 2004, published 2006)

Tests used:
velvetleaf [1] = experiment: Test A pre-/postemergence herbicide test; format: in vivo, Abutilon theophrasti
How it was run: (§1)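 Plants are held in greenhouse about ten days after treatment, then compared with untreated controls and scored 0 (no effect) to 100 (complete control). Preemergence dosing is a directed soil spray on sown sandy loam; postemergence dosing is spray to runoff at 2–10 cm height.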

barnyardgrass [2] = experiment: Test B pre-/postemergence herbicide test; format: in vivo, Echinochloa crus-galli; conditions: for Plant response rating, Barnyardgrass: preemergence; for Barnyardgrass plant response rating: postemergence, visual rating, scale 0 (no effect) to 100 (complete control)
How it was run: (§2)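 Flooded paddy rice and barnyardgrass were treated at the 2-leaf stage; upland plantings received compound either on sown seed or on 1- to 4-leaf seedlings. All were kept 13–15 days in a greenhouse and scored visually, 0–100, relative to untreated plants.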

ducksalad = experiment: Test B flooded paddy test; format: in vivo, Heteranthera limosa; conditions: 1000 g ai/ha, visual rating, scale 0 to 100 (0 no effect, 100 complete control), 13 to 15 days
How it was run: (§3)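 After treating 2-leaf paddy plants or 2–18 cm postemergence plants (1 to 4 leaves) with formulated chemical, researchers kept them in a greenhouse for 13–15 days. Effects were judged visually versus controls: 0 indicates none, 100 total control.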

rice [3] = experiment: Test B pre-/postemergence herbicide test; format: in vivo, Oryza sativa; conditions: preemergence, 125 g ai/ha; 0 to 100 scale, 0 is no effect, 100 is complete control
How it was run: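 Evaluation is visual, comparing treated with control plants on a scale where 0 means no effect and 100 means full control. Treatments were preemergence, or postemergence on seedlings 2–18 cm tall, and held 13–15 days in the greenhouse.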

[4] = test system: small flower umbrella sedge; experiment: Test B flooded paddy test; format: in vivo, Cyperus difformis; conditions: 1000 g ai/ha, visual rating, scale 0 to 100 (0 no effect, 100 complete control), 13 to 15 days
How it was run: as §3

giant foxtail [5] = experiment: Test A pre-/postemergence herbicide test; format: in vivo, Setaria faberi
How it was run: as §1

lambsquarters = experiment: Test B pre-/postemergence herbicide test; format: in vivo, Chenopodium album; conditions: for Plant response rating, Lambsquarters: preemergence; for Lambsquarters plant response rating: postemergence, visual rating, scale 0 (no effect) to 100 (complete control)
How it was run: as §2

large crabgrass [6] = experiment: Test B pre-/postemergence herbicide test; format: in vivo, Digitaria sanguinalis; conditions: for Plant response rating, Crabgrass, Large: preemergence; for Crabgrass, Large plant response rating: postemergence, visual rating, scale 0 (no effect) to 100 (complete control)
How it was run: as §2

wheat = experiment: Test B postemergence herbicide test; format: in vivo, Triticum aestivum; parameters: key to Wheat plant response rating: 0 = no effect, 100 = complete control; conditions: postemergence, visual rating, scale 0 (no effect) to 100 (complete control)
How it was run: (§4)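 Plants grow to 1- to 4-leaf stage (2–18 cm) for postemergence spraying, or to 2-leaf stage for the paddy test. Formulated compound is applied. Greenhouse holding lasts 13–15 days. Response is scored visually relative to controls, 0 no effect to 100 complete control; a dash means no result.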

corn = experiment: Test B pre-/postemergence herbicide test; format: in vivo, Zea mays; conditions: for Plant response rating, Corn: preemergence; for Corn plant response rating: postemergence, visual rating, scale 0 (no effect) to 100 (complete control)
How it was run: as §2

velvetleaf [7] = experiment: Test B pre-/postemergence herbicide test; format: in vivo, Abutilon theophrasti; conditions: for Plant response rating, Velvetleaf: preemergence; for Velvetleaf plant response rating: postemergence, visual rating, scale 0 (no effect) to 100 (complete control)
How it was run: as §2

redroot pigweed = experiment: Test A pre-/postemergence herbicide test; format: in vivo, Amaranthus retroflexus
How it was run: as §1

wild oat = experiment: Test B postemergence herbicide test; format: in vivo, Avena fatua; conditions: postemergence, visual rating, scale 0 (no effect) to 100 (complete control)
How it was run: as §4

giant foxtail [8] = experiment: Test B pre-/postemergence herbicide test; format: in vivo, Setaria faberi; conditions: for Plant response rating, Foxtail, Giant: preemergence; for Foxtail, Giant plant response rating: postemergence, visual rating, scale 0 (no effect) to 100 (complete control)
How it was run: as §2

pigweed = experiment: Test B pre-/postemergence herbicide test; format: in vivo, Amaranthus retroflexus; conditions: for Plant response rating, Pigweed: preemergence; for Pigweed plant response rating: postemergence, visual rating, scale 0 (no effect) to 100 (complete control)
How it was run: as §2

Surinam grass = experiment: Test B pre-/postemergence herbicide test; format: in vivo, Urochloa decumbens; conditions: for Plant response rating, Surinam Grass: preemergence; for Surinam Grass plant response rating: postemergence, visual rating, scale 0 (no effect) to 100 (complete control)
How it was run: as §2

barnyardgrass [9] = experiment: Test A pre-/postemergence herbicide test; format: in vivo, Echinochloa crus-galli
How it was run: as §1

morningglory [10] = experiment: Test A pre-/postemergence herbicide test; format: in vivo, Ipomoea spp.
How it was run: as §1

barnyardgrass [11] = experiment: Test B flooded paddy test; format: in vivo, Echinochloa crus-galli; conditions: 1000 g ai/ha, visual rating, scale 0 to 100 (0 no effect, 100 complete control), 13 to 15 days
How it was run: as §3

rice [12] = experiment: Test B flooded paddy test; format: in vivo, Oryza sativa; conditions: 1000 g ai/ha, visual rating, scale 0 to 100 (0 no effect, 100 complete control), 13 to 15 days
How it was run: as §3

morningglory [13] = experiment: Test B pre-/postemergence herbicide test; format: in vivo, Ipomoea coccinea; conditions: for Plant response rating, Morningglory: preemergence; for Morningglory plant response rating: postemergence, visual rating, scale 0 (no effect) to 100 (complete control)
How it was run: as §2

blackgrass = experiment: Test B postemergence herbicide test; format: in vivo, Alopecurus myosuroides; conditions: postemergence, visual rating, scale 0 (no effect) to 100 (complete control)
How it was run: as §3

cocklebur = experiment: Test B pre-/postemergence herbicide test; format: in vivo, Xanthium strumarium; conditions: for Plant response rating, Cocklebur: preemergence; for Cocklebur plant response rating: postemergence, visual rating, scale 0 (no effect) to 100 (complete control)
How it was run: as §2

large crabgrass [14] = experiment: Test A pre-/postemergence herbicide test; format: in vivo, Digitaria sanguinalis
How it was run: as §1

[15] = Postemergence, 500 g ai/ha, 0 to 100 scale, 0 no effect, 100 complete control
[16] = Postemergence, 2000 g ai/ha, 0 to 100 scale, 0 no effect, 100 complete control
[17] = Preemergence, 2000 g ai/ha, visual rating, 0 to 100 scale (0 no effect, 100 complete control)
[18] = preemergence, 500 g ai/ha, visual injury, 0 to 100 scale (0 no effect, 100 complete control)
[19] = 500 g ai/ha, visual rating 0-100, 0 no effect, 100 complete control
[20] = 125 g ai/ha, 0 to 100 scale, 0 is no effect, 100 is complete control
[21] = Preemergence, 500 g ai/ha, visual rating, 0 to 100 scale (0 no effect, 100 complete control)

## CC(=O)c1cc(NC(=O)c2cc(C(C)(C)C)nn2C)ccc1F [Compound 123]
Velvetleaf [1]; [15]
  Velvetleaf plant response rating: 0
Velvetleaf [1]; [16]
  Plant response rating, Velvetleaf: 10
Velvetleaf [1]; [17]
  Velvetleaf plant response rating: 0
Velvetleaf [1]; [18]
  Velvetleaf plant response rating: 0
Barnyardgrass [2]; [19]
  Plant response rating, Barnyardgrass: 0
Barnyardgrass [2]; 125 g ai/ha
  Barnyardgrass plant response rating: 0
Barnyardgrass [2]; 500 g ai/ha
  Barnyardgrass plant response rating: 0
Barnyardgrass [2]; [20]
  Plant response rating, Barnyardgrass: 0
ducksalad
  Ducksalad plant response rating: 50
Rice [3]
  Plant response rating, Rice: 0
[4]
  Sedge, Umbrella plant response rating: 30
Giant foxtail [5]; [15]
  Foxtail, Giant plant response rating: 0
Giant foxtail [5]; [16]
  Plant response rating, Foxtail, Giant: 10
Giant foxtail [5]; [21]
  Foxtail, Giant plant response rating: 0
Giant foxtail [5]; [17]
  Foxtail, Giant plant response rating: 0
lambsquarters; [19]
  Plant response rating, Lambsquarters: 0
lambsquarters; 125 g ai/ha
  Lambsquarters plant response rating: 0
lambsquarters; 500 g ai/ha
  Lambsquarters plant response rating: 0
lambsquarters; [20]
  Plant response rating, Lambsquarters: 0
Large crabgrass [6]; [19]
  Plant response rating, Crabgrass, Large: 0
Large crabgrass [6]; 125 g ai/ha
  Crabgrass, Large plant response rating: 0
Large crabgrass [6]; 500 g ai/ha
  Crabgrass, Large plant response rating: 0
Large crabgrass [6]; [20]
  Plant response rating, Crabgrass, Large: 0
wheat; 125 g ai/ha
  Wheat plant response rating: 0
wheat; 500 g ai/ha
  Wheat plant response rating: 0
corn; [19]
  Plant response rating, Corn: 0
corn; 125 g ai/ha
  Corn plant response rating: 0
corn; 500 g ai/ha
  Corn plant response rating: 0
corn; [20]
  Plant response rating, Corn: 0
Velvetleaf [7]; [19]
  Plant response rating, Velvetleaf: 0
Velvetleaf [7]; 125 g ai/ha
  Velvetleaf plant response rating: 0
Velvetleaf [7]; 500 g ai/ha
  Velvetleaf plant response rating: 0
Velvetleaf [7]; [20]
  Plant response rating, Velvetleaf: 0
Redroot pigweed; [15]
  Pigweed plant response rating: 0
Redroot pigweed; [16]
  Plant response rating, Pigweed: 15
Redroot pigweed; [17]
  Pigweed plant response rating: 0
Redroot pigweed; [18]
  Pigweed plant response rating: 0
Wild oat; 125 g ai/ha
  Oat, Wild plant response rating: 0
Wild oat; 500 g ai/ha
  Oat, Wild plant response rating: 0
Giant foxtail [8]; [19]
  Plant response rating, Foxtail, Giant: 0
Giant foxtail [8]; 125 g ai/ha
  Foxtail, Giant plant response rating: 0
Giant foxtail [8]; 500 g ai/ha
  Foxtail, Giant plant response rating: 0
Giant foxtail [8]; [20]
  Plant response rating, Foxtail, Giant: 0
pigweed; [19]
  Plant response rating, Pigweed: 0
pigweed; 125 g ai/ha
  Pigweed plant response rating: 0
pigweed; 500 g ai/ha
  Pigweed plant response rating: 0
pigweed; [20]
  Plant response rating, Pigweed: 0
Surinam grass; [19]
  Plant response rating, Surinam Grass: 0
Surinam grass; 125 g ai/ha
  Surinam Grass plant response rating: 0
Surinam grass; 500 g ai/ha
  Surinam Grass plant response rating: 0
Surinam grass; [20]
  Plant response rating, Surinam Grass: 0
Barnyardgrass [9]; [15]
  Barnyardgrass plant response rating: 5
Barnyardgrass [9]; [16]
  Plant response rating, Barnyardgrass: 20
Barnyardgrass [9]; [21]
  Barnyardgrass plant response rating: 5
Barnyardgrass [9]; [17]
  Barnyardgrass plant response rating: 50
Morningglory [10]; [15]
  Morningglory plant response rating: 0
Morningglory [10]; [16]
  Plant response rating, Morningglory: 10
Morningglory [10]; [21]
  Morningglory plant response rating: 0
Morningglory [10]; [17]
  Morningglory plant response rating: 0
Barnyardgrass [11]
  Barnyardgrass plant response rating: 0
Rice [12]
  Rice plant response rating: 0
Morningglory [13]; [19]
  Plant response rating, Morningglory: 0
Morningglory [13]; 125 g ai/ha
  Morningglory plant response rating: 0
Morningglory [13]; 500 g ai/ha
  Morningglory plant response rating: 0
Morningglory [13]; [20]
  Plant response rating, Morningglory: 0
blackgrass; 125 g ai/ha
  Blackgrass plant response rating: 0
blackgrass; 500 g ai/ha
  Blackgrass plant response rating: 0
cocklebur; [19]
  Plant response rating, Cocklebur: 0
cocklebur; 125 g ai/ha
  Cocklebur plant response rating: 0
cocklebur; 500 g ai/ha
  Cocklebur plant response rating: 0
cocklebur; [20]
  Plant response rating, Cocklebur: 0
Large crabgrass [14]; [15]
  Crabgrass, Large plant response rating: 10
Large crabgrass [14]; [16]
  Plant response rating, Crabgrass, Large: 10
Large crabgrass [14]; [21]
  Crabgrass, Large plant response rating: 15
Large crabgrass [14]; [17]
  Crabgrass, Large plant response rating: 0
